{"source": "patent US9333188B2", "about": "“Composition and method for improving survival of bee colonies” (Science in Water B.V., priority 2012, dated 2016)", "tested_on": "bees", "test": "Beekeeper field trial: winter survival of bee hives after feeding", "assay_type": "in vivo", "details": "populations given only iron(II) fumarate", "procedure": "In a trial, a number or beekeepers (16) used a solution of vinasse containing dissolved iron(II) fumarate with the goal of reducing instances of winter mortality and CCD. This solution was mixed with 100-200 ml of sugar syrup. The solution thus obtained was administered to bees with their feed. The quantities and results were as follows: A total of approximately 1,000 mg of iron(II) fumarate, or 333 mg Fe (i.e. 5.8 millimoles iron(II)) was administered per 5 kg of bees. This quantity was administered in small portions. The initial moments of the series administrations ranged from 5 August 2011 to 15 September 2011. The administration frequencies ranged from one time per week to one time per 3 days. If administration was started late in the season, administration was one time per 3 days to ensure that a consistent total amount of iron(II) fumarate was administered across the test populations. […] In a control populations given only pure vinasse the queens were dead within 14 days; these populations were then not viable and after the death of the queen, remaining bees in the population were merged with another population. In one case, the total amount of iron(II) fumarate and vinasse was added to 15 kg of sugar syrup. This emulsion was administered as a winter sugar, until the mixture was consumed. […]"}
{"smiles": "O=C([O-])/C=C/C(=O)[O-].[Fe+2]", "note": "[iron(II) fumarate]", "values": [{"measurement": "winter survival of control populations", "value": "survived the winter, but in a very weak state"}]}
